Legend:
Assay type in all cases: in vivo, mouse
[1] = system: TGF-β1 canonical signaling pathway (p-Smad 2); assay: pSmad-2 indirect immunofluorescence in tibialis anterior cryosections of mdx mice; conditions: exercised mdx mice, 1 mg/kg i.p. 3 times per week for 3 months
Experimental: FIG. 2. Andrographolide reduced expression and activity of the pro-fibrotic cytokine, TGF-β1, in mdx mice. To augment the extent of muscle fibrosis, 3 months old mdx mice were subjected to an exercise protocol for 3 months. Along this period one group was treated with 1 mg/kg andrographolide or vehicle (i.p. injections 3 time per week, 4 animal per group). A) TGF-β1 mRNA levels, an important pro-fibrotic cytokine, were determined in tibialis anterior muscle from Wild type (WT), Vehicle-Treated mdx and andrographolide-treated mdx mice by RT-qPCR using GAPDH as reference gene. Values correspond to the mean of dCT value±SD of three independent experiments, using four mice for each experimental condition and normalized to WT levels (*, P<0.05 relative to WT mice; #, P<0.05 relative to Vehicle-treated mdx mice). B) Detection of pSmad-2 (an intracellular TGF-β1 mediator) through indirect immunofluorescence analysis in cryosections of tibialis anterior muscle from Vehicle-treated and andrographolide-treated mdx mice. Bar corresponds to 200 μm.
Control or mdx (12 weeks old) male mice of C57BL/10 ScSn strain were studied. The animals were kept at room temperature with a […] night-day cycle and fed with pellets and water ad libitum. […]

mdx mice [2] = assay: Collagen and fibronectin in tibialis anterior muscle of mdx mice, immunofluorescence and western blot; conditions: exercised mdx mice, 1 mg/kg i.p. 3 times per week for 3 months
Experimental: FIG. 5. Andrographolide reduced skeletal muscle fibrosis in mdx mice. To augment the extent of muscle fibrosis, 3 months old mdx mice were subjected to an exercise protocol for 3 months. Along this period one group was treated with 1 mg/kg andrographolide or vehicle (i.p. injections 3 time per week, 6 animal per group). A) Detection of collagen I and fibronectin by indirect immunofluorescence analysis in cryosections of tibialis anterior muscles from WT, Vehicle-treated mdx and andrographolide-treated mdx mice. Bar corresponds to 200 μm. B) fibronectin (FN) protein levels were detected by western blot analysis in extracts obtained from tibialis Anterior muscles from WT, Vehicle-treated mdx and andrographolide-treated mdx mice. […] GAPDH protein levels are shown as loading control; molecular weight markers are shown in kDa.
For immunoblot analyses, muscles were homogenized in 10 volume Tris-EDTA buffer with 1 mM PMSF as described previously (Morales et al., 2011). Briefly, proteins were determined in aliquots of muscle extracts using the bicinchoninic acid protein assay kit (Pierce, Ill.) using BSA as standard. Aliquots (50-100 μg) were subjected to SDS gel electrophoresis in 8% or 10% polyacrylamide gels, electrophoretically transferred onto PVDF membranes (Schleicher & Schuell) and probed with specific antibodies against fibronectin (Sigma-Aldrich, USA), collagen III (Rockland, USA and GAPDH (Millipore, USA), tubulin (Sigma-Aldrich, USA) and GAPDH (Sigma-Aldrich, USA). All immunoreactions were visualized by enhanced chemiluminescence kit (Pierce, USA). Densitometric analysis and quantification were performed using ImageJ software (NIH, USA) (Cabello-Verrugio et al., 2012).
(§1) Control or mdx (12 weeks old) male mice of C57BL/10 ScSn strain were studied. The animals were kept at room temperature with a […] night-day cycle and fed with pellets and water ad libitum. Experimental exercise was performed for running the mice in a treadmill for three times per week, 30 minutes each time at 12 m/min during 3 or 4 months (De Luca et al., 2005; De Luca et al., 2003). […]

mdx mice [3] = assay: Treadmill running test (step backs) in mdx mice; conditions: treated mdx mice, treadmill at 15 m/min
Experimental: FIG. 6. Andrographolide increased skeletal muscle strength and exercise performance in mdx mice. 3 months old Wild Type (WT) and mdx mice were subjected to an exercise protocol for 3 months to augment the extent of muscle fibrosis. Along this period one group was treated with 1 mg/kg andrographolide or vehicle (i.p. injections 3 time per week, 6 animal per group). A) tibialis anterior muscles from wild-type (WT), Vehicle-treated mdx and andrographolide-treated mdx mice were isolated to evaluate isometric specific force (mN/mm2) at different stimulation frequencies (pulses per second, pps). B) Bar graph showing tetanic specific force. Values are represented as percentage of specific isometric force generated by Wild type muscle (*, P<0.05 relative to WT mice; #, P<0.05 relative to Vehicle-treated mdx mice). C) Bar graph showing twitch force (*, P<0.05 relative to WT mice; #, P<0.05 relative to Vehicle-treated mdx mice). D) Mice were subjected to an exercise challenge into the treadmill at 15 meters/min for 5 minutes and the number of stebacks was counted (*, P<0.05 relative to WT mice; #, P<0.05 relative to Vehicle-treated mdx mice).
Mice were subjected to a running test during […] at 15 m/min in a treadmill. The number of times that mice were retarded (step backs) to the first ⅓ of the moving platform was counted (Cabello-Verrugio et al., 2012).

CTGF = CTGF mRNA levels in tibialis anterior muscle of exercised mdx mice, RT-qPCR; conditions: 1 mg/kg i.p. 3 times per week for 3 months, vs vehicle
Experimental: FIG. 3. Andrographolide modulates CTGF action in vivo. A) To augment the extent of muscle fibrosis, 3 months old mdx mice were subjected to an exercise protocol for 3 months. Along this period one group was treated with 1 mg/kg andrographolide or vehicle (i.p. injections 3 time per week, 4 animal per group). CTGF mRNA levels, a downstream TGF-β1 pro-fibrotic mediator) were determined in tibialis anterior muscle from Wild type (WT), Vehicle-Treated mdx and andrographolide-treated mdx mice by RT-qPCR using GAPDH as reference gene. Values correspond to the mean of dCT value±SD of three independent experiments, using four mice for each experimental condition and normalized to WT levels (*, P<0.05 relative to WT mice; #, P<0.05 relative to Vehicle-treated mdx mice). B) Detection of macrophages (F4/80 positive cells) through immunohistochemistry analysis in cryosections of tibialis anterior muscle from andrographolide-treated WT mice that overexpress CTGF by adenovirus (adv CTGF) infection.
as §1

C=C1CC[C@@H]2[C@](C)(CO)[C@H](O)CC[C@@]2(C)[C@@H]1C/C=C1/C(=O)OC[C@H]1O [andrographolide]
number of positive nuclei for phosphorylated smad2 protein [1]: reduced | accumulation of collagen type I, immunofluorescence staining (mdx mice [2]; tibialis anterior): strongly decrease | accumulation of fibronectin, immunofluorescence staining (mdx mice [2]; tibialis anterior): strongly decrease | fibronectin protein levels by western blot analysis (mdx mice [2]; tibialis anterior extracts): decreased | number of stepbacks at the treadmill (mdx mice [3]): decreased | CTGF expression (mRNA) in mdx mice (CTGF): reduced

Reference: patent US20140271573A1, “PHARMACO-CELLULAR THERAPEUTIC METHOD FOR THE TREATMENT OF MUSCULAR DYSTROPHIES” (PONTIFICIA UNIVERSIDAD CATÓLICA DE CHILE, priority 2013, published 2014)
